For test [1], the target named is NHE1 (Homo sapiens, UniProt P19634). In words: Lithium uptake measurement, NHE1 control. In kind it is cell-based. The settings on record: for Ki: calculated from dose-response curves of lithium uptake; for Km: Michaelis constant of the cation for the exchanger. The method, then: The uptake of lithium was then started by adding the same medium containing 3 to 10 mM LiCl and the various inhibitor concentrations. […] At the end of the uptake time the cells were rinsed rapidly (4 rinses in less than 10 seconds) in PBS at 4° C. 250µl of 25% nitric acid were added per well. The cell contents were then transferred into eppendorf tubes. The tubes were centrifuged for 5 min at 13000 rpm at room temperature. The supernatant is used to measure the activity of NHE7 (or NHE1 in control) by measuring intracellular the Li^+ concentrations (which are due to NHE7 transport) by atomic absorption spectroscopy. (Thermo ICE 3000 Series AA Spectrometer). Data obtained from the uptake measurements were used to plot the dose responses curves i.e. the % of maximal lithium uptake as a function of the inhibitors concentrations (Log scale, figure 1).
Sequence of NHE1 (P19634 whole entry, species assumed): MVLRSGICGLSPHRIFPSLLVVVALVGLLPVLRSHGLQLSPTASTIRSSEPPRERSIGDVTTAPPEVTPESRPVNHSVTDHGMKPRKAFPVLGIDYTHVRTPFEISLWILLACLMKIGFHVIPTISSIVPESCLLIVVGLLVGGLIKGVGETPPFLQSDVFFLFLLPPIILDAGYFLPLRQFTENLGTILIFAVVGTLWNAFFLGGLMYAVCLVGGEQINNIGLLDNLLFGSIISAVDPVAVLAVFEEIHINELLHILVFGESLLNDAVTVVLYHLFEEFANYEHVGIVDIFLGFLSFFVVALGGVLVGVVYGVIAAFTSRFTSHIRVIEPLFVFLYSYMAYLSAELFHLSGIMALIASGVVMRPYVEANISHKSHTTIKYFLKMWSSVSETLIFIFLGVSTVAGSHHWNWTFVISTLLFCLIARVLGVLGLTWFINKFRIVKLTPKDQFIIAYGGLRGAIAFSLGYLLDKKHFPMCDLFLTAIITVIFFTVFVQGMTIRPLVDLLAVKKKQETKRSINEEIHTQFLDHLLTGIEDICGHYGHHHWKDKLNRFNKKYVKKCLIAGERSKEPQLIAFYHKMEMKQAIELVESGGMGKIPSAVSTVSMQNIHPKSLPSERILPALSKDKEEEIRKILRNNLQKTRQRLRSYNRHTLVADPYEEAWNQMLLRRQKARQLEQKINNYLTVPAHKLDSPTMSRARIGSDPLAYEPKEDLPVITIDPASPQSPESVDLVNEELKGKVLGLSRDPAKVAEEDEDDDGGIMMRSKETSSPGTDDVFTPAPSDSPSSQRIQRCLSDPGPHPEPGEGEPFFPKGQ
It is simple to obtain a linear equation by plotting the Maximal rate (w/o inhibitor) versus the rates in the presence of inhibitor, as a function of the inhibitor concentration. […] Table 1: Ki of the tested inhibitors

Test [2] deals with T1, NHE7 (Homo sapiens, UniProt Q96T83).
T1 construct: expressed in transfected cells
T1 sequence (Q96T83 1-725): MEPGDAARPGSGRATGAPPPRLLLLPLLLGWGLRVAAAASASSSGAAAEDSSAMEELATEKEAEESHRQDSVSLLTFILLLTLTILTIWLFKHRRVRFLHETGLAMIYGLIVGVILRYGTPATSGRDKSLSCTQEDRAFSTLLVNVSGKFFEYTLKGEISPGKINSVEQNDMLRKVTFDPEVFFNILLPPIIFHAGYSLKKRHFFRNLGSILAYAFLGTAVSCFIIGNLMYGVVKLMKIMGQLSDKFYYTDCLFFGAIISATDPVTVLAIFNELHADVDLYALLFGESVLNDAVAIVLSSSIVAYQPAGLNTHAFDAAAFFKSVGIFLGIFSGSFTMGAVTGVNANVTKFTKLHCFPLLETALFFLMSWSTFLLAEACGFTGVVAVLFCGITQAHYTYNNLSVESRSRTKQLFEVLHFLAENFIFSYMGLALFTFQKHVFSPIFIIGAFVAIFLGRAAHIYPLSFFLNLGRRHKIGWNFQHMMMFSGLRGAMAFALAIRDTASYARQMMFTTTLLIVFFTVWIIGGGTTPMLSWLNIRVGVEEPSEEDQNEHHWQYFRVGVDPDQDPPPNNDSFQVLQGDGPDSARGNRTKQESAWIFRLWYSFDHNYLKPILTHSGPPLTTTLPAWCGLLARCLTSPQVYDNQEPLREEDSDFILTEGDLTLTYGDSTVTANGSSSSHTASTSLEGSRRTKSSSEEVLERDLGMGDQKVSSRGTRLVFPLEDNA
Briefly: Lithium uptake in PM-NHE7 cells (atomic absorption spectroscopy), dose-response of inhibitors. In kind it is cell-based. The settings on record: for Ki: calculated from dose-response curves of lithium uptake, 3 to 10 mM LiCl, initial velocity conditions; for affinity to NHE7 / selectivity of affinity NHE7 compare to NHE1: statement in words; for affinity to NHE7: from dose-response curves (figure 1) and table 1; for selectivity of affinity NHE7 compare to NHE1: from table 1. The method, then:
The PM-NHE7 cells selected for NHE7 expression at the plasma membrane (Milosavljevic N, Monet M, Léna I, Brau F, Lacas-Gervais S, Feliciangeli S, Counillon L, Poet M., The intracellular Na(+)/H(+) exchanger NHE7 effects a Na(+)-coupled, but not K(+)-coupled proton-loading mechanism in endocytosis. Cell rep. 7, 1-8, May 8, 2014, 689-696) were seeded to confluence on 24-well plates and incubated for 60 minutes at 37°C in a medium containing 50 mM NH4Cl , 70mM Choline Chloride, 2 mM CaCl2, 1 mM MgCl2, 5 mM glucose, 15 mM Hepes (pH 7.4). The cells were then rinsed twice in less than 15 seconds with 120 mM choline chloride buffered to pH 7.4 with 15 mM Tris, 1 mM MgCl2, 2 mM CaCl2. The uptake of lithium was then started by adding the same medium containing 3 to 10 mM LiCl and the various inhibitor concentrations. Under these conditions, Lithium uptake is linear. All dose-response curves for the inhibitors tested in this study were therefore measured under initial velocity conditions in which equation (1) applies. At the end of the uptake time the cells were rinsed rapidly (4 rinses in less than 10 seconds) in PBS at 4° C. 250µl of 25% nitric acid were added per well. The cell contents were then transferred into eppendorf tubes. The tubes were centrifuged for 5 min at 13000 rpm at room temperature. The supernatant is used to measure the activity of NHE7 (or NHE1 in control) by measuring intracellular the Li^+ concentrations (which are due to NHE7 transport) by atomic absorption spectroscopy. (Thermo ICE 3000 Series AA Spectrometer). Data obtained from the uptake measurements were used to plot the dose responses curves i.e. the % of maximal lithium uptake as a function of the inhibitors concentrations (Log scale, figure 1).
Because acylguanidines are competitive inhibitors of NHE7, the dose response curves of different concentrations of inhibitors on the rate of transport are given by equation (1) below: V = Vmax[Li^(*)]/(Kmapp+[Li^+]); With Kmapp = Km(1 + [I]/Ki] [formula] • where [I] is the inhibitor concentration, • Vmax is the maximum speed of the exchanger, expressed in (100)% in the dose response curves, • Km is the value of the Michaelis constant for Lithium (see Milosavljevic et al., Cell rep. 7, 1-8, May 8, 2014, 689-696 for NHE7) • Ki the dissociation constant for the inhibitor under consideration.
It is simple to obtain a linear equation by plotting the Maximal rate (w/o inhibitor) versus the rates in the presence of inhibitor, as a function of the inhibitor concentration. The slope is then proportional to 1/Ki. Table 1: Ki of the tested inhibitors

Test [3] concerns WT NHE7 transfected cells. In words: Endocytosis kinetics: Alexa 555 transferrin uptake in cells expressing NHE7 in intracellular compartments. The test is classed as cell-based. The settings on record: different concentrations of zoniporide, five minutes of incubation, figure 2. The method, then: […] Alexa 555 transferrin (Invitrogen) was bound for various times at 37°C on WT NHE7 transfected cells (that express NHE7 specifically in intracellular compartments) in control conditions or in the presence of zoniporide at the defined concentrations. After five minutes of incubation, the coverslips were rapidly rinsed in ice-cold PBS and the cells were fixed in ice-cold 4% PFA and then permeabilized with 2% saponin. The nuclei were then stained with DAPI. These different steps rinse the transferrin, which has not been internalized, and stop intracellular traffic. This makes it possible to visualize the endocytosis at different times. The coverslips were then mounted and photographed for image analysis and quantification. […] Endocytosis was quantified as the normalized fluorescence accumulation in intracellular clusters as a function of time using a home-made macro (Mica Imaging platform, Nice) on Image J NIH ImageJ (Schneider, C. A.; Rasband, W. S. & Eliceiri, K. W. (2012), "NIH Image to ImageJ: 25 years of image analysis", Nature methods 9(7): 671-675). […] Then, all the clusters of red pixels (Alexa transferrin 555) with a density, a shape and a surface defined by the macro (and parameterizable by the user) are quantified inside each mask. […]

Test [4] has as its target T1, NHE7. The settings on record: Michaelis constant of the cation for the exchanger; cited from earlier work.

For orientation: Ki means a dissociation constant, usually derived from enzyme kinetics or from competition with a known ligand. For the compound `Cc1cc(-n2cccc2)c(S(C)(=O)=O)cc1C(=O)NC(=N)N` [Eniporide, eniporide], the Ki in test [1] is 40 nM. In addition, in test [2], the inhibition constant Ki was 2.5 nM, the “affinity to NHE7” value is recorded as “very good affinity” and the “selectivity of affinity NHE7 compare to NHE1” value was “selective to NHE7 compare to NHE1”.

Take `CC(C)c1ccc(C(=O)NC(=N)N)cc1S(C)(=O)=O` [Cariporide, cariporide]: the results for the Ki in test [1] and in test [2] were 40 nM and 20 nM, respectively.

Consider `CCN(c1nc(N)c(C(=O)NC(=N)N)nc1Cl)C(C)C` [EIPA, 5N-(ethylisopropyl) amiloride], for which the inhibition constant Ki was 100 nM in test [1] and 40 nM in test [2].

With `N=C(N)NC(=O)c1cnn(-c2cccc3ncccc23)c1C1CC1` [Zoniporide, zoniporide], in test [3], the “% of endocytosis” value is on record as “dose-dependent effect”. In addition, the inhibitory constant (Ki) in test [1] was 20 nM. Further, in test [2], the inhibition constant Ki is 3 nM, the “affinity to NHE7” value is recorded as “very good affinity” and the “selectivity of affinity NHE7 compare to NHE1” value is reported as “selective to NHE7 compare to NHE1”.

As to `N=C(N)NC(=O)c1nc(Cl)c(N)nc1N` [Amiloride, amiloride], the inhibition constant (Ki) in test [2] was 1640 nM.

As for `CN(C)c1nc(N)c(C(=O)NC(=N)N)nc1Cl` [DMA, dimethyl-amiloride], the Ki in test [1] was 100 nM; in test [2], 170 nM.

By Km is commonly meant the concentration of substrate that gives half-maximal velocity. Consider `[Li+]` [Li^+, lithium], for which the values for the Michaelis constant (Km) in test [1] and in test [4] were 10 mM and 16 mM, respectively.

Turning to `[Na+]` [Na^+, sodium], in test [1], the Michaelis constant (Km) is 30 mM.

In the case of `N=C(N)NC(=O)c1nc(Cl)c(N2CCCCCC2)nc1N` [HMA, hexamethyl-amiloride], the inhibitory constant (Ki) in test [1] is 20 nM; in test [2] it was 80 nM.

The record behind these values is patent EP3403653A1, “COMPOUNDS FOR USE IN TREATING BIPOLAR AND RELATED DISORDERS” (Centre National de la Recherche Scientifique (CNRS), priority 2017, dated 2018).
